Here are results for 1 molecule from patent EP0393973A1, “Antitumor Agent Indicated for lung cancer” (priority 1989, dated 1990).

In data set [1] the test system is sarcoma 180. Conditions: oral administration to mice bearing sarcoma 180; cited from earlier work.
For data set [2], the system named is chicken embryos. The note with it: cited from earlier work.
Data set [3] relates to platelet aggregation. Briefly: Suppression of platelet aggregation. Conditions: substance per se.
Data set [4] in a line: Observation of gastric mucosa after oral dosing of normal rats. The note with it: rat, in vivo. From the text:
It was therefore assumed that a massive dose of citral or lemongrass oil which contains citral as its principal constituent would adversely affect normal cells. • (2) Instead of dosing lemongrass oil directly to normal rats, lemongrass oil or citral in β-cyclodextrin clathrates was mixed with feed.

For the molecule `CC(C)=CCCC(C)=CC=O` [Citral, citral], the “growth of cancer cells” value in data set [1] was “suppresses growth of cancer cells”. Moreover, the teratogenicity result in data set [2] is “teratogenic”. In data set [3], the platelet aggregation result is “strongly suppresses”. For the same molecule, in data set [4], the “findings on the gastric mucosa” value is given as “petechiae were observed on the gastric mucosa”.
